Data as given in patent publication US20210315840A1, “SOLID ORAL DOSAGE FORMS OF KETAMINE DERIVATIVES” (priority 2017, published 2021).
“Also recorded” adds a separate entry of the source. Where two headings read alike, the source gives them in different places.

Assays:
[1] = test system: Caco-2
[2] = test system: mouse; experiment: Progressive ratio test in the mouse
[3] = 300 mg/kg IP daily for 4 days, listed as 2R,6R-HNK
[4] = 300 mg/kg, replication after 3-week wash-out, listed as 2R,6R-HNK
[5] = dose matched to 300 mg/kg 2R,6R-HNK

## CC(C)NCC(O)COc1cccc2ccccc12 (stereo not shown) [Propranolol, reference compound]
[1]; Direction = A2B
  Papp Replicate 1: 26.0 10^−6 cms^−1
  Papp Replicate 2: 27.4 10^−6 cms^−1
[1]; Direction = B2A
  Papp Replicate 1: 27.0 10^−6 cms^−1
  Papp Replicate 2: 26.2 10^−6 cms^−1

## N[C@@]1(c2ccccc2Cl)CCC[C@@H](O)C1=O [2R,6R-hydroxynorketamine L-pyroglutamate]
[2]; 300 mg/kg IP
  average responses per minute, higher compared with vehicle: 29%
[2]; 300 mg/kg IP daily for 4 days
  number of target touches compared to ketamine and vehicle groups: significant increase
[2]; 300 mg/kg IP daily for 4 days, tested 20 minutes after injection
  breakpoint compared to vehicle and ketamine: significant increase
[2]; [3]
  % of correct touches: significant increase; also recorded: significantly increased
  ratio of target touches to blank touches: significant increase; also recorded: significantly increased
[2]; 300 mg/kg IP, 60 minute test session
  rate of responding (running rate) compared to ketamine and vehicle groups: higher rate of responding
[2]; 300 mg/kg IP, p=0.12
  predicted peak responding (running rate coefficient): trend toward a main effect of drug
[2]; 300 mg/kg IP, ketamine 10 mg/kg
  average responses per minute, higher compared with ketamine: 59%
[2]; 300 mg/kg, replication after 3-week wash-out
  breakpoint compared to vehicle and ketamine: significant increase
[2]; [4]
  % of correct touches: significant increase; also recorded: increased
  number of target touches: significant increase; also recorded: increased
  ratio of target touches to blank touches: significant increase; also recorded: increased
[2]; doses below 30 mg/kg
  cognitive measures: No increase

## O=C1CC[C@@H](C(=O)[O-])N1.[Na+] [NaPg, sodium L-pyroglutamate, reference compound]
[2]; [5]
  any measure examined: did not significantly affect
  breakpoint compared to vehicle controls: did not increase
